Data published in US20110165128A1, “HOMING IN MESENCHYMAL STEM CELLS” (Columbia University in the City of New York, priority 2008, published 2011).

Tested on: adhesion of hMSCs to HUVECs
Assay: Adhesion assay: adhesion of hMSCs to endothelial cells (HUVECs)
Assay type: cell-based, human
Conditions: 0.5 μg/ml SDF-1 or 10 μM AMD3100
Excerpt: Exposure of cells to hypoxia: HUVECs were exposed to hypoxia in a BD GasPak EZ Anaerobe Gas Generating Pouch System with an Indicator (BD Biosciences) as described (Potapova, 2007). As certified by the manufacturer, the Anaerobe Gas Generating Pouch System produces an atmosphere containing 10% carbon dioxide and 1% oxygen.
Adhesion Assay: Adhesion of hMSCs to endothelial cells was studied using hMSCs isolated from a monolayer or 3 day old hMSC spheroids. Cells were dissociated using 0.25% trypsin-EDTA solution (Lonza) for 15 min in the case of hMSC monolayers, or for 90 min in the case of the spheroids. Trypsinization was stopped by addition of trypsin inhibitor solution (Lonza). Isolated cells were washed with PBS, labeled with 2 μg/ml Calcein AM in HBSS for 45 min at 37 °C in a humidified atmosphere of 5% CO2, washed with HBSS and resuspended in DMEM supplemented with 5% fetal bovine serum. HUVECs were plated in 24 well plates and maintained in EBM-2 growth media for 2-3 days until they reached confluence. For the adhesion assay, EBM-2 media was replaced with 0.5 ml of DMEM supplemented with 5% fetal bovine serum. hMSCs (10,000 cells per well) were added to endothelial cells. The adhesion assay was performed in the presence 0.5 μg/ml SDF-1, 10 μM AMD3100 or without additives. Plates were placed on a rotation platform (30 rotations per min) and incubated for 30 min at 37° C. […] Fluorescence was acquired from the bottom of the plates using a POLARstar OPTIMA microplate reader at excitation/emission wavelengths of 485/520 nm. Background fluorescence was determined in the wells containing no hMSCs but a monolayer of endothelial cells. Total cell load was estimated as the fluorescence from non-washed wells with added hMSCs. A minimum six wells were used to estimate background fluorescence, total cell load or fluorescence from adhered cells. Percent of bound cells was calculated as a ratio between fluorescence of adhered cells and total cell load after subtraction of background fluorescence. […]

In the case of `c1cc(CN2CCCNCCNCCCNCC2)ccc1CN1CCCNCCNCCCNCC1` [AMD3100], the “effect on the adhesion of cells from the spheroids to endothelial cells preexposed to hypoxia” value (cells from 3 day old hMSC spheroids, HUVECs pre-exposed to hypoxia) is reported as “no effect”, the “stimulation of the adhesion of cells from the spheroids to normoxic endothelial cells” value (cells from 3 day old hMSC spheroids, normoxic HUVECs) is reported as 1.7±0.4 times and the “effect on the adhesion of hMSCs from a monolayer to endothelial cells” value (hMSCs from a monolayer, normoxic or pre-exposed to hypoxia HUVECs) is reported as “Neither SDF-1 nor AMD3100 affected the adhesion”.
